{
  "source": "patent US8883786B2",
  "about": "“Glucocorticoid receptor antagonists” (Hoffmann-La Roche Inc., priority 2007, dated 2014)",
  "origin": "cited, not measured here",
  "key": {"[1]": {"tested_on": "Hypothalamus-Pituitary gland-Adrenal gland (HPA) axis", "conditions": "HPA axis stimulation via feed-back mechanism"}, "[2]": {"tested_on": "gluconeogenic enzymes", "conditions": "db/db mice"}, "[3]": {"conditions": "long term treatment (up to 1 year)"}, "[4]": {"conditions": "clinical administration, chronic, Cushing's patients"}, "[5]": {"tested_on": "ob/ob mice", "conditions": "leptin deficient ob/ob mice"}, "[6]": {"conditions": "clinical administration, acute, normal volunteers"}},
  "data": [
    {"smiles": "CC#C[C@]1(O)CC[C@H]2[C@@H]3CCC4=CC(=O)CCC4=C3[C@@H](c3ccc(N(C)C)cc3)C[C@@]21C", "note": "[RU486/mifepristone, mifepristone]", "values": [
      {"measurement": "endogenous corticosteroids circulating in the blood", "setting": "[1]", "value": "increase of endogenous corticosteroids circulating in the blood"},
      {"measurement": "activity of gluconeogenic enzymes", "setting": "[2]", "value": "normalizes"},
      {"measurement": "adrenal insufficiency symptoms", "setting": "[3]", "value": "induces some adrenal insufficiency symptoms"},
      {"measurement": "plasmatic HbA1c", "setting": "[4]", "value": "decrease of plasmatic HbA1c"},
      {"measurement": "fasting plasma glucose", "setting": "[5]", "value": "normalizes fasting plasma glucose"},
      {"measurement": "fasting plasma glucose", "setting": "[6]", "value": "decrease of fasting plasma glucose"}
    ]}
  ]
}
